Results from publication PMC8170132, “Kinetics of Abacavir-Induced Remodelling of the Major Histocompatibility Complex Class I Peptide Repertoire” (Frontiers in Immunology, 2021).

Key:
HLA-B*57:01fos [1] = target: T1, HLA-B*57:01fos (Homo sapiens, UniProt P01889, D201E/D98Y/E176V/E187L/E204Q/E69M/E70A/G107R/I90N/K202T/L105A/L119I/N104I/N87E/Q89R/Q94S/R106L/R155S/R180L/R86G/S101N/S121V/S35A/S48A/T118I/V36M/Y140S/Y91M); experiment: Fluorescence polarisation association rate measurements; assay type: binding; details: 25°C; for Effect of abacavir on binding of fluorescent peptide to HLA-B*57:01fos: 60 µM abacavir; for Effect of tapasin on binding of fluorescent peptide to HLA-B*57:01fos: tapasin-jun or tapasin-jun ERp57 C60A conjugate
T1 construct: Fos leucine zipper (C); made in house
Method: (§1) Peptide loaded HLA-B*57:01fos complexes were obtained as described ([50]) by refolding solubilised inclusion bodies of HLA-B*57:01fos heavy chains with human β 2m and UV-labile HLA-B57-conditional peptide ligand.
(§2) Fluorescence polarisation measurements were taken using a SpectraMax i3x Multi-Mode Microplate Reader (Molecular Devices) with rhodamine detection cartridge. All experiments were conducted at 25°C and used PBS supplemented with 0.5 mg/ml bovine-gamma-globulin (Sigma), and a 20 fold molar excess of human β 2m (Fitzgerald) in a volume of 60 µl. Binding of TAMRA-labelled peptides is reported in millipolarisation units (mP) and is obtained from the equation mP = 1,000 × (S – G × P)/(S + G × P), where S and P are background subtracted fluorescence count rates (S = polarisation emission filter is parallel to the excitation filter; P = polarisation emission filter is perpendicular to the excitation filter) and G (grating) is an instrument and assay dependent factor.
Peptide-receptive HLA-B*57:01fos were obtained by exposing HLA-B*57:01fos complexes loaded with UV labile conditional peptide ligand to ~360 nm light for 20 min at 4°C (“UV exposed” hereafter). The binding of fluorescent peptides to UV exposed HLA-B*57:01fos was monitored in the absence or presence of excess (60 µM) abacavir or tapasin-jun or tapasin-jun ERp57 C60A conjugate. […] Most experiments used 0.55 µM HLA-B*57:01fos molecules, but a minority of experiments involved different preparations of HLA-B*57:01fos which required higher concentrations of HLA-B*57:01fos, up to a maximum of 3.18 µM HLA-B*57:01fos, to achieve equivalent polarisation levels.

HLA-B*57:01fos [2] = target: T1, HLA-B*57:01fos; experiment: Fluorescence polarisation dissociation rate measurements; assay type: binding; details: for Effect of abacavir on dissociation of the peptide from HLA-B*57:01fos: 60 µM abacavir with competing peptide; for Half life (hours) of dissociation from HLA-B*57:01fos, Comp+Abacavir: plus 60 µM abacavir; for Half life (hours) of dissociation from HLA-B*57:01fos, Comp+Tapasin+Abacavir: plus tapasin-jun-ERp57 C60A and 60 µM abacavir; for Half life (hours) of dissociation from HLA-B*57:01fos, Comp: PBS + 0.5 mg/ml bovine-gamma-globulin, 20 fold excess human β2m, excess unlabelled competing peptide only
Method: as §1, §2
HLA-B*57:01fos molecules were UV exposed and then allowed to bind fluorescent peptides overnight at room temperature. Florescence polarisation measurements were taken after the addition of excess non-labelled competitor peptide (otherwise identical to the labelled peptide) in the absence or presence of 60 µM abacavir or conjugated tapasin-jun-ERp57 C60A proteins. […] Most experiments used 0.55 µM HLA-B*57:01fos molecules, but some experiments involved different preparations of HLA-B*57:01fos which required higher concentrations of HLA-B*57:01fos, up to a maximum of 1.38 µM HLA-B*57:01fos, to achieve equivalent polarisation levels.
Supplementary Table 2. Dissociation rates of TAMRA-labelled peptides from HLA-B*57:01fos molecules. The rates at which the indicated peptides dissociated from HLA-B*57:01fos molecules in the presence of excess unlabelled competing peptide (“Comp”), abacavir and tapasin (data shown in figure 7) was measured by Graphpad Prism v9.1.0. The dissociation rates were calculated by performing non-linear regression, using the one-phase decay method, with plateaus constrained to be equal to 50 mP (apart from being unconstrained for RVD peptide). The number of experimental replicates, and the standard deviation in the measured dissociation rates across the replicates is also presented.

HLA-B*57:01 [3] = target: T2, HLA-B*57:01 (Homo sapiens, UniProt P01889, D201E/D98Y/E176V/E187L/E204Q/E69M/E70A/G107R/I90N/K202T/L105A/L119I/N104I/N87E/Q89R/Q94S/R106L/R155S/R180L/R86G/S101N/S121V/S35A/S48A/T118I/V36M/Y140S/Y91M); experiment: LC-MRM-MS quantitation of HLA ligands and co-purified abacavir from abacavir treated C1R.B*57:01 cells; assay type: cell-based; details: for Abacavir dependence: LC-MRM-MS detection, classification of the peptide based on abacavir dependency; for Linear regression slope: linear regression of LC-MRM-MS peptide abundance over abacavir treatment time; for Category of abacavir impact on peptide abundance in the immunopeptidome: C1R.B*57:01, 35 µM abacavir 0-16 h or constant, linear regression of normalised abundance, three replicates
HLA-B*57:01 [4] = target: T2, HLA-B*57:01; set-up: method as in Illing et al., Nature 2012; details: ref Illing et al., Nature 2012, cited from earlier work; for HLA-B*57:01 previous observation by LC-MS/MS, Abacavir treated: abacavir treated cells; for HLA-B*57:01 previous observation by LC-MS/MS, Untreated: untreated cells
[5] = as Comp, fluorescence polarisation, 25°C, one-phase decay, plateau 50 mP (unconstrained for RVD), 3-4 replicates
[6] = fluorescence polarisation, 25°C, one-phase decay, plateau 50 mP (unconstrained for RVD), 3-4 replicates

Row | Substance | Abacavir dependence (HLA-B*57:01 [3]) | Linear regression slope (HLA-B*57:01 [3]) | HLA-B*57:01 previous observation by LC-MS/MS, Abacavir treated (HLA-B*57:01 [4]) | HLA-B*57:01 previous observation by LC-MS/MS, Untreated (HLA-B*57:01 [4]) | further results
1 | ATFK*GIVRAI |  |  |  |  | Effect of abacavir on binding of fluorescent peptide to HLA-B*57:01fos (HLA-B*57:01fos [1]; fluorescence polarisation): less pronounced; Effect of tapasin on binding of fluorescent peptide to HLA-B*57:01fos (HLA-B*57:01fos [1]; fluorescence polarisation): only slightly enhanced binding; Effect of abacavir on dissociation of the peptide from HLA-B*57:01fos (HLA-B*57:01fos [2]): pronounced decrease in the dissociation; Half life (hours) of dissociation from HLA-B*57:01fos, Comp+Abacavir (HLA-B*57:01fos [2]; [5]): 71.63 h; Half life (hours) of dissociation from HLA-B*57:01fos, Comp+Tapasin (HLA-B*57:01fos [2]; as Comp, plus conjugated tapasin-jun-ERp57 C60A (mostly 0.254 µM), fluorescence polarisation, 25°C, one-phase decay, plateau 50 mP (unconstrained for RVD), 3-4 replicates): 2.04 h; Half life (hours) of dissociation from HLA-B*57:01fos, Comp+Tapasin+Abacavir (HLA-B*57:01fos [2]; [5]): 33.59 h; Half life (hours) of dissociation from HLA-B*57:01fos, Comp (HLA-B*57:01fos [2]; [6]): 2.34 h
2 | ITTKAISRW [canonical peptide ligand of HLA-B*57:01] |  |  |  |  | Effect of abacavir on binding of fluorescent peptide to HLA-B*57:01fos (HLA-B*57:01fos [1]; fluorescence polarisation): enhanced the binding
3 | KTFK*DVGNLL |  |  |  |  | Effect of combined abacavir and tapasin on binding of fluorescent peptide to HLA-B*57:01fos (HLA-B*57:01fos [1]; 60 µM abacavir + tapasin-jun, fluorescence polarisation): occurred faster than in the presence of tapasin or abacavir alone; Effect of abacavir on binding of fluorescent peptide to HLA-B*57:01fos (HLA-B*57:01fos [1]; fluorescence polarisation): binding strongly enhanced; Intrinsic binding of fluorescent peptide to UV exposed HLA-B*57:01fos (HLA-B*57:01fos [1]; peptide alone, fluorescence polarisation (mP)): limited intrinsic ability to bind; Effect of tapasin on binding of fluorescent peptide to HLA-B*57:01fos (HLA-B*57:01fos [1]; fluorescence polarisation): binding strongly enhanced; Effect of abacavir on dissociation of the peptide from HLA-B*57:01fos (HLA-B*57:01fos [2]): pronounced decrease in the dissociation; Half life (hours) of dissociation from HLA-B*57:01fos, Comp+Abacavir (HLA-B*57:01fos [2]; [5]): 814.20 h; Half life (hours) of dissociation from HLA-B*57:01fos, Comp+Tapasin+Abacavir (HLA-B*57:01fos [2]; [5]): 62.89 h; Half life (hours) of dissociation from HLA-B*57:01fos, Comp (HLA-B*57:01fos [2]; [6]): 402.30 h; Tapasin dependent enhancement of dissociation (HLA-B*57:01fos [2]; tapasin-jun-ERp57 C60A with competing peptide): significant
4 | LTTK*LTNTNI |  |  |  |  | Effect of tapasin on binding of fluorescent peptide to HLA-B*57:01fos (HLA-B*57:01fos [1]; fluorescence polarisation): did not affect the binding
5 | RVAQLEQVYI | Dependent | 0.0208 | + (+ (< 5% FDR)) |  | 
6 | RVDPAKGLFYF [non-labelled HLA-B*57:01 ligand] | Inhibited | -0.0245 | + (+ (< 5% FDR)) | + (+ (< 5% FDR)) | Category of abacavir impact on peptide abundance in the immunopeptidome (HLA-B*57:01 [3]): Inhibited
7 | RVDPDVAQHW | Minimal | 0.0110 | + (+ (< 5% FDR)) | + (+ (< 5% FDR)) | 
8 | RVLPPSHRVTW | Minimal | 0.0197 | + (+ (< 5% FDR)) | + (+ (< 5% FDR)) | 
9 | SAAYLPRMW | Minimal | -0.0194 | + (+ (< 5% FDR)) | + (+ (< 5% FDR)) | 
10 | SSAEVKVTI | Dependent | 0.0466 | + (+ (< 5% FDR)) |  | 
11 | STIRLLTSL | Facilitated | 0.0278 | + (+ (< 5% FDR)) | + (+ (< 5% FDR)) | 
12 | STLHLVLRL | Dependent | 0.0280 | + (+ (< 5% FDR)) | + (+ (< 5% FDR)) | 
13 | TALPLLKQF | Inhibited | -0.0283 | + (+ (< 5% FDR)) | + (+ (< 5% FDR)) | 
14 | TFDDIVHSF |  | 0.0142 | + (+ (< 5% FDR)) | + (+ (< 5% FDR)) | 
15 | TSLKSRVTI [non-labelled HLA-B*57:01 ligand] | Facilitated | 0.0267 | # (# (> 5% FDR)) | + (+ (< 5% FDR)) | Category of abacavir impact on peptide abundance in the immunopeptidome (HLA-B*57:01 [3]): Facilitated
16 | TSQAGLFRLW | Minimal | 0.0067 | + (+ (< 5% FDR)) | + (+ (< 5% FDR)) | 
17 | TTWKPLNPNSW | Minimal | 0.0009 | + (+ (< 5% FDR)) | + (+ (< 5% FDR)) | 
18 | VSAKEKYYVW | Minimal | -0.0125 | + (+ (< 5% FDR)) | + (+ (< 5% FDR)) | 
19 | VSVKDIQAHL | Dependent | 0.0241 | + (+ (< 5% FDR)) |  | 
20 | VTHSVRIGF | Inhibited | -0.0410 | + (+ (< 5% FDR)) | + (+ (< 5% FDR)) | 
21 | VTKKTYEIW [non-labelled canonical HLA-B*57:01 ligand] | Minimal | 0.0161 | + (+ (< 5% FDR)) | + (+ (< 5% FDR)) | Category of abacavir impact on peptide abundance in the immunopeptidome (HLA-B*57:01 [3]): Minimal; Effect of abacavir on binding of fluorescent peptide to HLA-B*57:01fos (HLA-B*57:01fos [1]; fluorescence polarisation): enhanced the binding
22 | VTTDIQVKV | Dependent | 0.0428 | + (+ (< 5% FDR)) | + (+ (< 5% FDR)) | 
23 | VTYPAKAKGTFI | Dependent | 0.0340 | + (+ (< 5% FDR)) |  | 
24 | YFDPANGKF |  | 0.0159 | + (+ (< 5% FDR)) | + (+ (< 5% FDR)) | 
25 | YTDNLVRVW [HLA-B*57:01 ligand derived from RACK1] | Minimal | -0.0088 | + (+ (< 5% FDR)) | + (+ (< 5% FDR)) | Category of abacavir impact on peptide abundance in the immunopeptidome (HLA-B*57:01 [3]): minimally impacted by abacavir
